Results on 13 molecules are retold here after ChEMBL document CHEMBL3044954, “Insecticide Resistance and Insensitive Acetylcholinesterase in Small Brown Planthopper, Laodelphax striatellus” (J Pestic Sci, 2000).

Each structure is given as a SMILES string.

In test [1] the test system is Laodelphax striatellus. The test can be described thus: Insecticidal activity against Laodelphax striatella Ibaraki (small brown planthopper) assessed as mortality compound treated topically on dorsal side. To be noted: topical.
Test [2] has as its system Laodelphax striatellus. The test can be described thus: Insecticidal activity against Laodelphax striatella Kumamoto (small brown planthopper) assessed as mortality compound treated topically on dorsal side. To be noted: topical.
Test [3] concerns Laodelphax striatellus. As to the kind of experiment: Insecticidal activity against susceptible Laodelphax striatella (small brown planthopper) assessed as mortality compound treated topically on dorsal side. To be noted: topical. In kind it is functional.
Test [4] concerns Laodelphax striatellus. The test can be described thus: Ratio of LD50 for Laodelphax striatella Ibaraki (small brown planthopper) to LD50 for susceptible Laodelphax striatella. In kind it is functional.
Test [5] has as its system Laodelphax striatellus. As to the kind of experiment: Ratio of LD50 for Laodelphax striatella Kumamoto (small brown planthopper) to LD50 for susceptible Laodelphax striatella. In kind it is functional.
The target of test [6] is Acetylcholinesterase (Laodelphax striatella) (UniProt K4JQ36). The test can be described thus: Ratio of I50 of acetylcholinesterase in Laodelphax striatella Ibaraki (small brown planthopper) homogenate to I50 for acetylcholinesterase in susceptible Laodelphax striatella homogenate. To be noted: Laodelphax striatellus.
Chain of Acetylcholinesterase (Laodelphax striatella) (K4JQ36 1-426): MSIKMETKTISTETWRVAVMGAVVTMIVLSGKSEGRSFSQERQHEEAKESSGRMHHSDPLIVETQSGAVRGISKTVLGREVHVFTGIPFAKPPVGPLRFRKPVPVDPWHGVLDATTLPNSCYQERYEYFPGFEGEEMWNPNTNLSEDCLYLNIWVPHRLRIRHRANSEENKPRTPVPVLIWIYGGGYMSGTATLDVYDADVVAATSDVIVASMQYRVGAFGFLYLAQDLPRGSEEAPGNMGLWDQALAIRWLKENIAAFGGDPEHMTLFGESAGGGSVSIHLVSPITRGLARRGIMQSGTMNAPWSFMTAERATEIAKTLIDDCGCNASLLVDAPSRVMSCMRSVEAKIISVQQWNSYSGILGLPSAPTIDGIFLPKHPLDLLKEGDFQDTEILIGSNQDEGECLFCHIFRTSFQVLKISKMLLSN
The target is the same in test [7]. The test can be described thus: Ratio of I50 of acetylcholinesterase in Laodelphax striatella Kumamoto (small brown planthopper) homogenate to I50 for acetylcholinesterase in susceptible Laodelphax striatella homogenate. To be noted: Laodelphax striatellus.
Test [8] has as its target T1, Acetylcholinesterase (Laodelphax striatella, UniProt K4JQ36). The test can be described thus: Inhibition of acetylcholinesterase in Laodelphax striatella Ibaraki (small brown planthopper) homogenate preincubated for 10 min before substrate addition measured after 10 min by Ellman method. More on the design: species or system Laodelphax striatellus. Particulars: read-out: I50. Background: DTNB colorimetry detects thiols as they appear.

Test [9] deals with T1, Acetylcholinesterase. The test can be described thus: Inhibition of acetylcholinesterase in Laodelphax striatella Kumamoto (small brown planthopper) homogenate preincubated for 10 min before substrate addition measured after 10 min by Ellman method. Particulars: read-out: I50. Also on record: species or system Laodelphax striatellus.
In test [10] the target is T1, Acetylcholinesterase. The test can be described thus: Inhibition of acetylcholinesterase in susceptible Laodelphax striatella (small brown planthopper) homogenate preincubated for 10 min before substrate addition measured after 10 min by Ellman method. To be noted: read-out: I50. More on the design: species or system Laodelphax striatellus.
The target of test [11] is T2, Carboxylesterase (Laodelphax striatella) (UniProt K4JRP7).
T2 sequence (whole entry): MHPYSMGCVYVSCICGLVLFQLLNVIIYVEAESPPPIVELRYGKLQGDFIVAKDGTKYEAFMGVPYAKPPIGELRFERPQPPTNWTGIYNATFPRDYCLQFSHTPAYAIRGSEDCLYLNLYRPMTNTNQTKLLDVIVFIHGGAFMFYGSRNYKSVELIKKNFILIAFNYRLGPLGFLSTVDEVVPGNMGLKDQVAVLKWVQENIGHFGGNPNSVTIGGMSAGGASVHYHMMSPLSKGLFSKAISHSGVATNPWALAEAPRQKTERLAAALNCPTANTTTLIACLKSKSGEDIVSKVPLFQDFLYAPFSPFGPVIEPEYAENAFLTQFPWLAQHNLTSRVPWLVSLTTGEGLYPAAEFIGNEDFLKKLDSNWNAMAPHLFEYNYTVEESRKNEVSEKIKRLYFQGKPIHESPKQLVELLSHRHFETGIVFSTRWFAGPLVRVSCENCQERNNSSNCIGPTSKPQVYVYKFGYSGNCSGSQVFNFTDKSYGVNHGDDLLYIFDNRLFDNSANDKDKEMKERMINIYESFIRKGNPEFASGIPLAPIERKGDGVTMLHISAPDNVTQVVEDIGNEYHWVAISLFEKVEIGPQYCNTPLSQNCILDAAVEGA
As to the kind of experiment: Activity of aliesterase in Laodelphax striatella Ibaraki (small brown planthopper) homogenate assessed per 10 min per ug protein after 10 min by van Asperen method. To be noted: Laodelphax striatellus.

Test [12] addresses T2, Carboxylesterase (Laodelphax striatella). The test can be described thus: Activity of aliesterase in Laodelphax striatella Kumamoto (small brown planthopper) homogenate assessed per 10 min per ug protein after 10 min by van Asperen method. Particulars: Laodelphax striatellus.
For test [13] the target is unchanged. As to the kind of experiment: Activity of aliesterase in susceptible Laodelphax striatella (small brown planthopper) homogenate assessed per 10 min per ug protein after 10 min by van Asperen method. To be noted: Laodelphax striatellus.
Test [14] shares this target. The test can be described thus: Ratio of activity of aliesterase in Laodelphax striatella Ibaraki (small brown planthopper) homogenate to activity of aliesterase in susceptible Laodelphax striatella homogenate. To be noted: Laodelphax striatellus.
The target is the same in test [15]. As to the kind of experiment: Ratio of activity of aliesterase in Laodelphax striatella Kumamoto (small brown planthopper) homogenate to activity of aliesterase in susceptible Laodelphax striatella homogenate. Particulars: Laodelphax striatellus.

T1 sequence (K4JQ36 whole entry): as the sequence (K4JQ36 1-426) above

As a reminder, the LD50 is the dose expected to kill half of the subjects tested. On to `O=[N+]([O-])/N=C1\NCCN1Cc1ccc(Cl)nc1` [IMIDACLOPRID], for which the LD50 in test [1] was found to be 0.26 mg/kg; in [2] it was 0.61 mg/kg; in [3], 0.26 mg/kg. Also, the results for the Ratio in [4] and in test [5] were 1 and 2.3, respectively.
Take `CNC(=O)Oc1cccc2c1OC(C)(C)C2` [CARBOFURAN]: the values for the LD50 in test [1], in test [2] and in [3] were 1.7 mg/kg, 20 mg/kg and 0.51 mg/kg, respectively. Moreover, the figures for the Ratio in [4] and in [5] were 3.3 and 39, respectively.
In the case of `CCOP(=O)(OCC)Oc1cc(C)nc(C(C)C)n1` [DIAZOXON], the Ratio in [6] was determined as 1.1; in [7], 2.4. Also, the values for the IC50 in [8], in test [9] and in test [10] were 190 nM, 400 nM and 170 nM, respectively.
`CCC(C)c1ccccc1OC(=O)NC` (centres undefined) [FENOBUCARB]: the LD50 came to 33 mg/kg in test [1], 320 mg/kg in test [2] and 18 mg/kg in test [3]. Besides, the Ratio in test [6] was 0.9; in [7] it was 4.8; in [4], 1.8; in [5], 18. The IC50 in test [8] was 26 nM; in test [9] it was 140 nM; in test [10], 29 nM.
In the case of `COP(=S)(OC)Oc1ccc([N+](=O)[O-])c(C)c1` [FENITROTHION], the median lethal dose (LD50) in [1] worked out at 27 mg/kg; in test [2], 38 mg/kg; in test [3] it was 6.4 mg/kg. Further, the values for the Ratio in [4] and in test [5] were 4.2 and 5.9, respectively.
For `CC(=O)Oc1cccc2ccccc12`, the values for the Activity in test [11], in test [12] and in test [13] were 27 nmol, 29 nmol and 6.6 nmol, respectively. The Ratio in [14] turned out to be 4.1; in [15], 4.3.
Consider `CNC(=O)Oc1cccc2ccccc12` [CARBARIL], for which the IC50 was found to be 48 nM in test [8], 310 nM in test [9] and 48 nM in test [10].
For `CCOc1ccc(C(C)(C)COCc2cccc(Oc3ccccc3)c2)cc1` [ETOFENPROX], the 50% lethal dose (LD50) in test [1] turned out to be 1.7 mg/kg; in test [2] it was 2.7 mg/kg; in test [3], 1.6 mg/kg. Also, the Ratio was determined as 1.1 in [4] and 1.7 in test [5].
With `COP(=O)(OC)Oc1ccc([N+](=O)[O-])c(C)c1` [FENITROXON], the Ratio is 1 in test [6] and 2.1 in test [7]. Besides, the IC50 in test [8] was 360 nM; in test [9], 730 nM; in test [10], 350 nM.
`CCCCN(CCCC)SN(C)C(=O)Oc1cccc2c1OC(C)(C)C2` [CARBOSULFAN]: the LD50 was 42 mg/kg in test [2] and 2.2 mg/kg in test [3]. Also, in test [5], the Ratio turned out to be 19.
In the case of `CCOC(=O)CC(SP(=S)(OC)OC)C(=O)OCC` (centres undefined) [MALATHION], the 50% lethal dose (LD50) in test [1] is 130 mg/kg; in test [2] it was 380 mg/kg; in test [3], 22 mg/kg. In addition, the Ratio was determined as 5.9 in test [4] and 17 in test [5].
In the same order, the values of `CCOP(=S)(OCC)Oc1cc(C)nc(C(C)C)n1` [DIMPYLATE] are 28 mg/kg, 74 mg/kg, 8.5 mg/kg, 3.3 and 8.7.
`CC(C)C(C(=O)OC(C#N)c1cccc(Oc2ccccc2)c1)c1ccc(Cl)cc1` (centres undefined) [FENVALERATE]: the figures for the median lethal dose (LD50) in [1] and in [3] were 1.9 mg/kg and 1.4 mg/kg, respectively. Also, the Ratio in test [4] was 1.4.
